Data from patent US12194153B2, “Amorphous dispersion of 4-methyl-3-quinolin-3-ylethynyl-benzoic acid n′-(2-chloro-6-methyl-benzoyl) hydrazide” (SUN PHARMA ADVANCED RESEARCH COMPANY LIMITED, priority 2017, dated 2025).

Assay: Oral bioavailability study in dogs (plasma levels of compound of formula I)
Type: in vivo
Settings: dog; oral administration to dogs; plasma level of compound of formula I
Description: Suitable amount of amorphous dispersion of Example I and the crystalline form of compound of formula I suspended in a vehicle were administered orally to dogs.
Blood samples were withdrawn at various time intervals and the plasma levels of compound of formula I were recorded. The Cmax, AUC0 to t and AUC0-∞, in plasma are tabulated below.

- AUC(0-inf): 1190 ng·h/mL
- AUC(0-t): 1070 ng·h/mL
- Cmax: 282 ng/mL
SMILES: Cc1ccc(C(=O)NNC(=O)c2c(C)cccc2Cl)cc1C#Cc1cnc2ccccc2c1 [Compound of formula I in a vehicle, 4-Methyl-3-quinolin-3-ylethynyl-benzoic acid N′-(2-chloro-6-methyl-benzoyl)hydrazide]
